Like-named read-outs stand apart in the source and are kept apart here.
Legend:
[1] = molecular target: mu opioid receptor (Rattus norvegicus, UniProt P33535); test: Rat brain mu opioid receptor binding assay ([3H]DAMGO); details: Rat mu opioid receptor binding constant, rat forebrain membranes, ~0.8 nM [3H]DAMGO
Procedure: Rat Brain Mu Opioid Receptor Binding Assay
(§1) Procedure: Male, Sprague Dawley rats (150-250 g, VAF, Charles River, Kingston, N.Y.) were killed by CO2, and their brains removed and placed immediately in ice cold Tris HCl buffer (50 mM, pH 7.4). The forebrains were separated from the remainder of the brain by a coronal transection, beginning dorsally at the colliculi and passing ventrally through the midbrain-pontine junction. After dissection, the forebrains were homogenized in Tris buffer in a Teflon®-glass homogenizer. The homogenate was diluted to a concentration of 1 g of forebrain tissue per 80 mL Tris and centrifuged at 39,000×g for 10 min. The pellet was resuspended in the same volume of Tris buffer containing 5 mM MgCl2 with several brief pulses from a Polytron homogenizer. This particulate preparation was used for the delta opioid binding assays.
(§2) Analysis: The data from the scintillation counter were used to calculate either the % inhibition compared to control binding (when only a single concentration of test compound was evaluated) or a Ki value (when a range of concentrations tested). Percent inhibition was calculated as: [(total dpm-test compound dpm)/(total dpm-nonspecific dpm)]*100. Kd and Ki values were calculated using GraphPad PRISM data analysis program.

[2] = molecular target: delta opioid receptor (Rattus norvegicus, UniProt P33533); test: Rat brain delta opioid receptor binding assay ([3H]DPDPE); details: Rat delta opioid receptor binding constant, rat forebrain membranes, ~4 nM [3H]DPDPE
Sequence of delta opioid receptor (P33533 whole entry): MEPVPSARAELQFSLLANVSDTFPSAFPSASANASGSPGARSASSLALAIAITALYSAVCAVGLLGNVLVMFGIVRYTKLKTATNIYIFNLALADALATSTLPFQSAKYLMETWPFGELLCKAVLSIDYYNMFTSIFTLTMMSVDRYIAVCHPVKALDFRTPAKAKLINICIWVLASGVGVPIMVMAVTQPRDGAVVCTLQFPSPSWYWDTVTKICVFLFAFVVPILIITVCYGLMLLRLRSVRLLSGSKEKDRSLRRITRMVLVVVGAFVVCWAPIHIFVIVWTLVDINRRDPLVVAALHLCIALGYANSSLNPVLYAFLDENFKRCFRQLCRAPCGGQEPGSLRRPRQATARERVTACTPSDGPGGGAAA
Procedure: Rat Brain Delta Opioid Receptor Binding Assay
as §1, with “assays. Following incubation with the delta selective peptide ligand ˜4 nM [^3H]DPDPE at 25° C. for 2.5 h in a 96-well plate with total volume of 1 mL, the plate contents were filtered through Wallac filtermat B sheets on a Tomtec 96-well harvester. The filters were rinsed three times with 2 mL of 10 mM HEPES (pH 7.4), and dried in a 650 W microwave oven for 1.75 min twice. To each sample area 2×50 μL of Betaplate Scint scintillation fluid (LKB) was added and the radioactivity quantified on a LKB (Wallac) 1205 BetaPlate liquid scintillation counter.” for “assays.”
as §2, with “concentrations was” for “concentrations”

Sequence of mu opioid receptor (P33535 whole entry): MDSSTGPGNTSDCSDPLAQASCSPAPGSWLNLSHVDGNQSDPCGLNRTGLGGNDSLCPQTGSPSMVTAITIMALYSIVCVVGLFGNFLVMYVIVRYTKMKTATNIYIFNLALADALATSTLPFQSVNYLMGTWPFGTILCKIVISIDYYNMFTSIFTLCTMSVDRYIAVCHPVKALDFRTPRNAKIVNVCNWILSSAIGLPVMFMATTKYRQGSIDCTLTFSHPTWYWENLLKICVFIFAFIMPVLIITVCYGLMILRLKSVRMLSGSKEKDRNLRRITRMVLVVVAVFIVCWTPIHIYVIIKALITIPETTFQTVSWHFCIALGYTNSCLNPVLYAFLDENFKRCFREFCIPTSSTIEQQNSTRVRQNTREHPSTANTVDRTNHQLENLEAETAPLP

| SMILES | Ki ([1]; MOR Ki) [nM] | Ki ([2]; DOR Ki) [nM] | Ki ([1]; read-out: MOR Ki) [nM] | Ki ([2]; read-out: DOR Ki) [nM] |
| --- | --- | --- | --- | --- |
| COC(=O)[C@H](CO)NC(=O)c1ccc2c(c1)Oc1ccccc1C2=C1CC2CCC(C1)N2 [Cpd 37] | 950 | 412 |  |  |
| O=c1[nH]c(-c2ccc3c(c2)Oc2ccccc2C3=C2CC3CCC(C2)N3)ns1 [Cpd 95] |  |  | 4930 | 159 |
| CC(C)CNC(=N)c1ccc2c(c1)Oc1ccccc1C2=C1CC2CCC(C1)N2 [Cpd 49] | 4020 | 1330 |  |  |
| CN(CCc1ccccc1)C(=O)c1ccc2c(c1)Oc1ccccc1C2=C1CC2CCC(C1)N2 [Cpd 17] | 37 | 37 |  |  |
| c1cncc(-c2ccc3c(c2)Sc2ccccc2C3=C2CC3CCC(C2)N3)c1 [Cpd 112, 3-(3-Pyridin-3-yl-thioxanthen-9-ylidene)-8-aza-bicyclo[3.2.1]octane] | 1010 | 481 |  |  |
| Fc1cccc(-c2ccc3c(c2)Oc2ccccc2C3=C2CC3CCC(C2)N3)c1 [Cpd 51] | 16500 | 2440 |  |  |
| O=C(Nc1ccccc1)c1ccc2c(c1)Oc1ccccc1C2=C1CC2CCC(C1)N2 [Cpd 47] | 1200 | 813 |  |  |
| c1cncc(-c2ccc3c(c2)Sc2ccccc2C3=C2CC3CCC(C2)N3Cc2ccoc2)c1 [Cpd 116, 8-Furan-3-ylmethyl-3-(3-pyridin-3-yl-thioxanthen-9-ylidene)-8-aza-bicyclo[3.2.1]octane] |  | 93 | 113 |  |
| c1ccc2c(c1)Sc1cc(-c3nnn[nH]3)ccc1C2=C1C[C@H]2CC[C@@H](C1)N2 (single isomer, unassigned) [Cpd 102, (1RS,5SR)-3-[3-(1H-Tetrazol-5-yl)-thioxanthen-9-ylidene]-8-aza-bicyclo[3.2.1]octane] | 2770 | 54 |  |  |
| c1ccc2c(c1)Oc1cc(-c3ccsc3)ccc1C2=C1CC2CCC(C1)N2 [Cpd 55] | 9280 | 4720 |  |  |
| CC(=O)Nc1ccccc1-c1ccc2c(c1)Oc1ccccc1C2=C1CC2CCC(C1)N2C(=O)C(F)(F)F [Cpd 131] |  |  | > 10000 | > 10000 |
| c1cncc(-c2ccc3c(c2)Sc2ccccc2C3=C2CC3CCC(C2)N3Cc2ncc[nH]2)c1 [Cpd 115] | 60 | 91 |  |  |
| Cc1nnc(-c2ccc3c(c2)Oc2ccccc2C3=C2CC3CCC(C2)N3)[nH]1 [Cpd 35, 3-[3-(5-Methyl-4H-[1,2,4]triazol-3-yl)-xanthen-9-ylidene]-8-aza-bicyclo[3.2.1]octane] | 673 | 266 |  |  |
| CC(C)(C)OC(=O)N1C2CCC1CC(=C1c3ccccc3Oc3cc(C(=O)NCCO)ccc31)C2 [Cpd 122] |  |  | > 10000 | > 10000 |
| COc1cccc(C2CCCN(C(=O)c3ccc4c(c3)Oc3ccccc3C4=C3CC4CCC(C3)N4)C2)c1 (stereo not drawn) [Cpd 65] | 317 | 88 |  |  |
| O=C(c1ccc2c(c1)Oc1ccccc1C2=C1CC2CCC(C1)N2)N1CCC(O)C1 (single isomer, unassigned) [Cpd 69] | 2060 | 105 |  |  |
| CC(=O)Nc1ccccc1-c1ccc2c(c1)Sc1ccccc1C2=C1CC2CCC(C1)N2C [Cpd 118] |  |  | 2070 | 612 |
| COC[C@H](Cc1ccccc1)NC(=O)c1ccc2c(c1)Oc1ccccc1C2=C1CC2CCC(C1)N2 [Cpd 31] |  |  | 660 | 142 |
| Fc1ccc(-c2ccc3c(c2)Oc2ccccc2C3=C2CC3CCC(C2)N3)cc1 [Cpd 54] |  | 4470 |  |  |
| CC(=O)Nc1ccccc1-c1ccc2c(c1)Sc1ccccc1C2=C1CC2CCC(C1)N2 [Cpd 113] | 1520 | 90 |  |  |
| COc1cccc(-c2ccc3c(c2)Oc2ccccc2C3=C2CC3CCC(C2)N3)c1 [Cpd 57] | 19700 | 6960 |  |  |
| COc1ccccc1-c1ccc2c(c1)Oc1ccccc1C2=C1CC2CCC(C1)N2 [Cpd 44] | 7580 | 659 |  |  |
| CN1C2CCC1CC(=C1c3ccccc3Sc3cc(-c4cccnc4)ccc31)C2 [Cpd 114] | 109 | 108 |  |  |
| NC(=NO)c1ccc2c(c1)Oc1ccccc1C2=C1CC2CCC(C1)N2 [Cpd 24] | 621 | 76.8 |  |  |

| SMILES | Ki ([1]; MOR Ki) [nM] | Ki ([2]; DOR Ki) [nM] | Ki ([1]; read-out: MOR Ki) [nM] | Ki ([2]; read-out: DOR Ki) [nM] |
| --- | --- | --- | --- | --- |
| Cc1nc(-c2ccc3c(c2)Oc2ccccc2C3=C2CC3CCC(C2)N3)no1 [Cpd 36, 3-[3-(5-Methyl-[1,2,4]oxadiazol-3-yl)-xanthen-9-ylidene]-8-aza-bicyclo[3.2.1]octane] | 3550 | 373 |  |  |
| OCc1cccc(-c2ccc3c(c2)Oc2ccccc2C3=C2CC3CCC(C2)N3)c1 [Cpd 23] | 3510 | 75 |  |  |
| CC(C)NC(=N)c1ccc2c(c1)Oc1ccccc1C2=C1CC2CCC(C1)N2 [Cpd 39] | 5170 | 441 |  |  |
| Cn1ccc(-c2ccc3c(c2)Oc2ccccc2C3=C2CC3CCC(C2)N3)n1 [Cpd 111] | 2640 | 220 |  |  |
| Cc1cccc(-c2ccc3c(c2)Oc2ccccc2C3=C2CC3CCC(C2)N3)c1 [Cpd 46] |  | 723 |  |  |
| COc1cccc2c1Oc1cc(-c3ccsc3)ccc1C2=C1CC2CCC(C1)N2 [Cpd 106] |  |  | 2740 | 281 |
| O=C(NCCO)c1ccc2c(c1)Oc1ccccc1C2=C1CC2CCC(C1)N2 [Cpd 123] |  |  | 1020 | 106 |
| O=C(O)c1ccc2c(c1)Oc1ccccc1C2=C1CC2CCC(C1)N2 [Cpd 72] |  |  | 1960 | 216 |
| Nc1ccccc1-c1ccc2c(c1)Oc1ccccc1C2=C1CC2CCC(C1)N2 [Cpd 25] | 1660 | 77.4 |  |  |
| CC(=O)Nc1cccc(-c2ccc3c(c2)Oc2ccccc2C3=C2CC3CCC(C2)N3)c1 [Cpd 20] | 2800 | 46.6 |  |  |
| O=C(NCC(F)(F)F)c1ccc2c(c1)Oc1ccccc1C2=C1CC2CCC(C1)N2 [Cpd 64] | 411 | 52 |  |  |
| COC(=O)c1ccc2c(c1)Oc1cc(C(=O)OC)ccc1C2=C1CC2CCC(C1)N2 [Cpd 78, 9-(8-Aza-bicyclo[3.2.1]oct-3-ylidene)-9H-xanthene-3,6-dicarboxylic acid dimethyl ester] | 7000 | 1150 |  |  |
| Cn1nnnc1-c1ccc2c(c1)Oc1ccccc1C2=C1CC2CCC(C1)N2 [Cpd 21, 3-[3-(1-Methyl-1 H-tetrazol-5-yl)-xanthen-9-ylidene]-8-aza-bicyclo[3.2.1]octane] | 1740 | 54 |  |  |
| CC(=O)Nc1ccc(-c2ccc3c(c2)Oc2ccccc2C3=C2CC3CCC(C2)N3)cc1 [Cpd 30] | 2740 | 139 |  |  |
| CC(=O)Nc1ccccc1-c1ccc2c(c1)Oc1ccccc1C2=C1CC2CCC(C1)N2C(=O)C(F)(F)F [Cpd 130] |  |  | > 10000 | > 10000 |
| Brc1ccc2c(c1)Sc1ccccc1C2=C1CC2CCC(C1)N2 [Cpd 84, 3-(3-Bromo-thioxanthen-9-ylidene)-8-aza-bicyclo[3.2.1]octane] | > 10000 | 2900 |  |  |
| CC(=O)Nc1ccccc1-c1ccc2c(c1)Sc1ccccc1C2=C1CC2CCC(C1)N2Cc1ccoc1 [Cpd 120] |  | 54 | 183 |  |
| N=C(c1ccc2c(c1)Oc1ccccc1C2=C1CC2CCC(C1)N2)N1CCCCC1 [Cpd 43] | 5340 | 496 |  |  |
| CS(=O)(=O)Nc1cccc(-c2ccc3c(c2)Oc2ccccc2C3=C2CC3CCC(C2)N3)c1 [Cpd 63] | 5120 | 161 |  |  |
| c1ccc(Sc2ccc3c(c2)Sc2ccccc2C3=C2CC3CCC(C2)N3)cc1 [Cpd 83, 3-(3-Phenylsulfanyl-thioxanthen-9-ylidene)-8-aza-bicyclo[3.2.1]octane] | > 10000 | 8510 |  |  |
| O=C(N1C2CCC1CC(=C1c3ccccc3Oc3cc(-c4cccnc4)ccc31)C2)C(F)(F)F [Cpd 129] |  |  | > 10000 | > 10000 |
| c1ccc2c(c1)Oc1cc(-c3ccncc3)ccc1C2=C1CC2CCC(C1)N2 [Cpd 29] | 1820 | 133 |  |  |
| CC(=O)Nc1ccccc1-c1ccc2c(c1)Sc1ccccc1C2=C1CC2CCC(C1)N2Cc1ncc[nH]1 [Cpd 119] |  |  | 349 | 142 |
| COc1ccc(-c2ccc3c(c2)Oc2ccccc2C3=C2CC3CCC(C2)N3)cn1 [Cpd 32] |  | 160 |  |  |

Reference: patent US20060030585A1, “Tricyclic delta-opioid modulators” (priority 2004, published 2006)
